Test system: βTC3 cells
Experiment: TNF-α mediated apoptosis of β-gal transfected βTC3 cells (percentage of viable cells)
Format: cell-based, murine
Method: The murine insulinoma cell line βTC3 (DSMZ, Braunschweig, Germany) was cultured in Dulbecco's Modified Eagle's Medium (DMEM) (Life Technologies, Grand Island, N.Y., USA) supplemented with 2 mM L-glutamine, 100 U/ml penicillin G, 100 U/ml streptomycin and 10% Fetal Calf Serum (FCS) (Life Technologies) and incubated in humidified 5% CO2/95% air at 37° C. This murine β-cell line, derived from transgenic mice carrying a hybrid insulin-promoter simian virus 40 tumor antigen, is known to maintain the features of differentiated β-cells for about 50 passages in culture. […] Compared to other frequently used transformed β-cell lines such as RIN-m5F and HIT, levels of secreted insulin are closer to normal β-cells in the βTC3 cell line. Thus, these cells are useful for studying β-cell regulation and gene expression (D'Ambra et al., Endocrinology 726:2815–22, 1990).
βTC3 were seeded at 3×10^5 cells in 16 mm wells and transfected 15 to 20 hours later using Lipofectamine plus™ reagents (Life Technologies) according to the manufacturer's instructions. Total DNA was maintained constant using empty pcDNA3 vector. The percentage of viable cells was assessed by normalizing the percentage of viable cells of each DNA preparation to the number of control-transfected cells without the apoptotic stimulus (100% viability) (Soares et al., Nature Med. 4:1073–1077, 1998; Sato et al., J. Immunol. 166:4185–4194, 2001).
Murine recombinant TNF-α (R&D Systems) was dissolved in PBS with 1% bovine serum albumin and added to the culture medium (17.5 ng/ml=500 U) 24 hours after transfection. The caspase-3 inhibitor Z-DEVD-FMK and the caspase-8 inhibitor IETD-CHO (Calbiochem, San Diego, Calif.) were dissolved in dimethyl sulphoxide (DMSO, Sigma) and added to the culture medium (10 μM and 1 μM respectively) two hours before treatment with TNF-α. Tin protoporphyrin (SnPPIX) (Porphyrin Products, Logan, Utah) was dissolved (10 mM) in 100 mM NaOH and added 6 hours after transfection to the culture medium (50 μM). The guanylyl cyclase inhibitor 1H[1,2,4]oxadiazolo[4,3-α]quinoxalin-1 (ODQ; Calbiochem) was dissolved in DMSO and added to the culture medium (100 μM) 6 hours after transfection. The cGMP analogue 8-bromoguanosine-3′-5′-cyclic-monophosphate (8-Br-cGMP) (Sigma) was dissolved in water and added to the culture medium (10 μM) 30 minutes before induction of apoptosis. The protein kinase G inhibitor KT5823 (Calbiochem) was dissolved in DMSO and added to the culture medium (1.6 μM) 6 hours after transfection.
Cells and islets were exposed to 1% carbon monoxide in compressed air balanced with 5% CO2, as described elsewhere (see, e.g., Otterbein et al., Nature Med. 6:422–428, 2000). Islets were incubated in RPMI medium pre-saturated with carbon monoxide (4° C. overnight, 1% CO, 5% CO2) for two hours at 37° C. while treatment with 1% CO, 5% CO2 was continued.

With Nc1nc2c(nc(Br)n2[C@@H]2O[C@@H]3COP(=O)(O)O[C@H]3[C@H]2O)c(=O)[nH]1 [8-Br-cGMP, 8-bromoguanosine-3′-5′-cyclic-monophosphate] the “effect on βTC3 apoptosis” value (TNF-α, 8-Br-cGMP 10 μM, no CO) was “suppressed βTC3 apoptosis to an extent similar to that seen with carbon monoxide”.

For [C-]#[O+] [CO, carbon monoxide], the “effect on β-cell apoptosis induced by etoposide or serum starvation” value (1% CO) was “suppressed”, the “effect on β-cell apoptosis, CO exposure immediately after TNF-α” value (1% CO for one hour, tested 24 hours later) was “sufficient to prevent β-cell apoptosis” and the “effect on β-cell apoptosis, CO exposure after induction of apoptosis” value (1% CO for one hour, two hours after TNF-α stimulation) was “still able to suppress β-cell apoptosis”. The “effect on TNF-α mediated apoptosis” value (1% CO, action of HO-1 suppressed by SnPPIX) was “suppressed TNF-α mediated apoptosis to a similar extent as HO-1” and the “effect on β-cell apoptosis, pre-incubation with CO” value (one hour pre-incubation, TNF-α two to three hours after end of CO treatment) was “prevented β-cell apoptosis”.

For O=c1onc2cnc3ccccc3n12 [ODQ, 1H[1,2,4]oxadiazolo[4,3-α]quinoxalin-1], the “effect on the anti-apoptotic effect of exogenous CO” value (TNF-α, 1% CO, ODQ 100 μM, KT5823 1.6 μM) was “suppressed the anti-apoptotic effect of CO”.

For C=Cc1c2[n-]c(c1C)/C=c1\[n-]/c(c(C)c1C=C)=C\c1[n-]c(c(CCC(=O)O)c1C)C=c1[n-]/c(c(C)c1CCC(=O)O)=C\2.[Sn+4] [SnPPIX, tin protoporphyrin IX], the “anti-apoptotic effect of HO-1 over-expression when HO-1 activity was blocked” value (TNF-α, SnPPIX 50 μM) was “the anti-apoptotic effect was suppressed”.

Reference: patent publication US7238469B2, “Carbon monoxide improves outcomes in tissue and organ transplants and suppresses apoptosis” (priority 2001, dated 2007)
